According to ChEMBL document CHEMBL1155172, “Distribution of radioactivity in bone and related structures following administration of [14C]dalbavancin to New Zealand white rabbits” (Antimicrob Agents Chemother, 2007):

How the values were obtained:
Design in all cases: dose 20 mg/kg, route intravenous
Settings in all cases: in vivo
[1] = Drug level in New Zealand white rabbit bone assessed as [14C]dalbavancin level per gram of tissue at 20 mg/kg, iv after 12 hrs by liquid scintillation counting method; type: ADME, organism-based, Oryctolagus cuniculus, Bone element
[2] = Drug level in New Zealand white rabbit nucleus pulposus assessed as [14C]dalbavancin level per gram of tissue at 20 mg/kg, iv after 72 hrs by liquid scintillation counting method; type: ADME, organism-based, Oryctolagus cuniculus
[3] = Drug level in New Zealand white rabbit articular cartilage assessed as [14C]dalbavancin level per gram of tissue at 20 mg/kg, iv after 72 hrs by autoradioluminography; type: ADME, organism-based, Oryctolagus cuniculus
Blood [4] = assay: Drug level in New Zealand white rabbit blood assessed as [14C]dalbavancin level per gram of tissue at 20 mg/kg, iv after 72 hrs by autoradioluminography; type: ADME, organism-based, Oryctolagus cuniculus
Oryctolagus cuniculus = assay: Plasma concentration in New Zealand white rabbit assessed as [14C]dalbavancin level per gram of tissue at 20 mg/kg, iv after 24 hrs by liquid scintillation counting method; type: ADME, organism-based
[5] = Drug level in New Zealand white rabbit nucleus pulposus assessed as [14C]dalbavancin level per gram of tissue at 20 mg/kg, iv after 336 hrs by liquid scintillation counting method; type: ADME, organism-based, Oryctolagus cuniculus
[6] = Drug level in New Zealand white rabbit bone assessed as [14C]dalbavancin level per gram of tissue at 20 mg/kg, iv after 168 hrs by liquid scintillation counting method; type: ADME, organism-based, Oryctolagus cuniculus, Bone element
[7] = Drug level in New Zealand white rabbit bone marrow assessed as [14C]dalbavancin level per gram of tissue at 20 mg/kg, iv after 12 hrs by liquid scintillation counting method; type: ADME, organism-based, Oryctolagus cuniculus
[8] = Drug level in New Zealand white rabbit bone marrow assessed as [14C]dalbavancin level per gram of tissue at 20 mg/kg, iv after 336 hrs by autoradioluminography; type: ADME, organism-based, Oryctolagus cuniculus
Blood [9] = assay: Drug level in New Zealand white rabbit blood assessed as [14C]dalbavancin level per gram of tissue at 20 mg/kg, iv after 336 hrs by autoradioluminography; type: ADME, organism-based, Oryctolagus cuniculus

Drug uptake [1]: 7.04 µg | Drug uptake [2]: 0.67 µg | Drug uptake [3]: 8.04 µg/g | Drug uptake (Blood [4]): 5.02 µg/g | Cp (Oryctolagus cuniculus): 19.3 µg/g | Drug uptake [5]: 0.6 µg/g | Drug uptake [6]: 3.39 µg/g | Drug uptake [7]: 15.1 µg/g | Drug uptake [8]: 30.3 µg/g | Drug uptake (Blood [9]): 3.08 µg/g
SMILES: CN[C@H]1C(=O)N[C@@H]2Cc3ccc(cc3)Oc3cc4cc(c3O[C@@H]3O[C@H](C(=O)O)[C@@H](O)[C@H](O)[C@H]3NC(=O)CCCCCCCCC(C)C)Oc3ccc(cc3Cl)[C@@H](O)[C@@H]3NC(=O)[C@H](NC(=O)[C@@H]4NC(=O)[C@@H](NC2=O)c2cc(cc(O)c2Cl)Oc2cc1ccc2O)c1ccc(O)c(c1)-c1c(O[C@H]2O[C@H](CO)[C@@H](O)[C@H](O)[C@@H]2O)cc(O)cc1[C@@H](C(=O)NCCCN(C)C)NC3=O [DALBAVANCIN]
